In PubChem BioAssay (NCI):
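Cultured in 96-well plates, cells were exposed to test compound for 48 hours across five concentrations. TGI marks complete inhibition of growth.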

Tests used:
Experiment in all cases: NCI-60 cell line screen, 48 h
[1] = test system: NCI-H522 lung
[2] = test system: SNB-75 CNS
[3] = test system: T-47D breast
[4] = test system: SW-620 colon
[5] = test system: NCI-H226 lung
[6] = test system: SR leukemia
[7] = test system: HCT-15 colon
[8] = test system: HS 578T breast
[9] = test system: UO-31 renal
[10] = test system: SK-OV-3 ovarian
[11] = test system: CCRF-CEM leukemia
[12] = test system: OVCAR-3 ovarian
[13] = test system: A498 renal
[14] = test system: MALME-3M melanoma
[15] = test system: ACHN renal
[16] = test system: 786-0 renal
[17] = test system: MDA-MB-231 breast
[18] = test system: OVCAR-4 ovarian
[19] = test system: HT29 colon
[20] = test system: RPMI-8226 leukemia
[21] = test system: A549 NSCLC
[22] = test system: K-562 leukemia
[23] = test system: HOP-92 NSCLC
[24] = test system: MOLT-4 leukemia
[25] = test system: SK-MEL-5 melanoma
[26] = test system: HOP-62 NSCLC
[27] = test system: M14 melanoma
[28] = test system: SF-268 CNS
[29] = test system: NCI/ADR-RES ovarian
[30] = test system: U251 CNS
[31] = test system: IGROV1 ovarian
[32] = test system: SF-295 CNS
[33] = test system: HCC-2998 colon
[34] = test system: OVCAR-5 ovarian
[35] = test system: PC-3 prostate
[36] = test system: BT-549 breast
[37] = test system: COLO 205 colon
[38] = test system: HL-60(TB) leukemia
[39] = test system: SN12C renal
[40] = test system: SK-MEL-28 melanoma
[41] = test system: NCI-H23 lung
[42] = test system: HCT-116 colon
[43] = test system: TK-10 renal
[44] = test system: UACC-62 melanoma
[45] = test system: MCF7 breast
[46] = test system: SK-MEL-2 melanoma
[47] = test system: DU-145 prostate
[48] = test system: OVCAR-8 ovarian
[49] = test system: MDA-MB-435
[50] = test system: EKVX NSCLC
[51] = test system: MDA-N
[52] = test system: UACC-257 melanoma
[53] = test system: CAKI-1 renal
[54] = test system: KM12 colon
[55] = test system: RXF 393 renal
[56] = test system: LOX IMVI melanoma
[57] = test system: SNB-19 CNS
[58] = test system: SF-539 CNS
[59] = test system: NCI-H460 lung

NC(N)=Nc1ccc(CC(N)C(=O)O)cc1 (stereo not given)
TGI [1]: > 12.5 µM | TGI [2]: > 12.5 µM | TGI [3]: > 12.5 µM | TGI [4]: > 12.5 µM | TGI [5]: > 12.5 µM | TGI [6]: > 12.5 µM | TGI [7]: > 12.5 µM | TGI [8]: > 12.5 µM | TGI [9]: > 12.5 µM | TGI [10]: > 12.5 µM | TGI [11]: > 12.5 µM | TGI [12]: > 12.5 µM | TGI [13]: > 12.5 µM | TGI [14]: > 12.5 µM | TGI [15]: > 12.5 µM | TGI [16]: > 12.5 µM | TGI [17]: > 12.5 µM | TGI [18]: > 12.5 µM | TGI [19]: > 12.5 µM | TGI [20]: > 12.5 µM | TGI [21]: > 12.5 µM | TGI [22]: > 12.5 µM | TGI [23]: > 12.5 µM | TGI [24]: > 12.5 µM | TGI [25]: > 12.5 µM | TGI [26]: > 12.5 µM | TGI [27]: > 12.5 µM | TGI [28]: > 12.5 µM | TGI [29]: > 12.5 µM | TGI [30]: > 12.5 µM | TGI [31]: > 12.5 µM | TGI [32]: > 12.5 µM | TGI [33]: > 12.5 µM | TGI [34]: > 12.5 µM | TGI [35]: > 12.5 µM | TGI [36]: > 12.5 µM | TGI [37]: > 12.5 µM | TGI [38]: > 12.5 µM | TGI [39]: > 12.5 µM | TGI [40]: > 12.5 µM | TGI [41]: > 12.5 µM | TGI [42]: > 12.5 µM | TGI [43]: > 12.5 µM | TGI [44]: > 12.5 µM | TGI [45]: > 12.5 µM | TGI [46]: > 12.5 µM | TGI [47]: > 12.5 µM | TGI [48]: > 12.5 µM | TGI [49]: > 12.5 µM | TGI [50]: > 12.5 µM | TGI [51]: > 12.5 µM | TGI [52]: > 12.5 µM | TGI [53]: > 12.5 µM | TGI [54]: > 12.5 µM | TGI [55]: > 12.5 µM | TGI [56]: > 12.5 µM

CCC(C#N)NCc1cccc(CNC(C#N)CC)c1 (stereo not given)
TGI [1]: > 100 µM | TGI [3]: > 100 µM | TGI [4]: > 100 µM | TGI [5]: > 100 µM | TGI [7]: > 100 µM | TGI [8]: > 100 µM | TGI [9]: > 100 µM | TGI [10]: 32.3 µM | TGI [11]: > 100 µM | TGI [12]: > 100 µM | TGI [57]: > 100 µM | TGI [13]: > 100 µM | TGI [14]: > 100 µM | TGI [15]: > 100 µM | TGI [16]: > 100 µM | TGI [17]: > 100 µM | TGI [18]: > 100 µM | TGI [19]: > 100 µM | TGI [21]: > 100 µM | TGI [22]: > 100 µM | TGI [23]: > 100 µM | TGI [24]: > 100 µM | TGI [25]: > 100 µM | TGI [27]: 31.4 µM | TGI [28]: > 100 µM | TGI [29]: > 100 µM | TGI [30]: > 100 µM | TGI [31]: > 100 µM | TGI [32]: 33.7 µM | TGI [33]: > 100 µM | TGI [34]: 34.2 µM | TGI [35]: > 100 µM | TGI [36]: > 100 µM | TGI [37]: > 100 µM | TGI [38]: > 100 µM | TGI [39]: > 100 µM | TGI [40]: > 100 µM | TGI [41]: > 100 µM | TGI [42]: > 100 µM | TGI [43]: > 100 µM | TGI [44]: > 100 µM | TGI [45]: > 100 µM | TGI [46]: > 100 µM | TGI [58]: > 100 µM | TGI [47]: > 100 µM | TGI [48]: > 100 µM | TGI [49]: > 100 µM | TGI [59]: > 100 µM | TGI [50]: > 100 µM | TGI [51]: > 100 µM | TGI [52]: > 100 µM | TGI [53]: > 100 µM | TGI [54]: > 100 µM | TGI [56]: > 100 µM
